Experimental data: ChEMBL document CHEMBL1909046, “DrugMatrix in vitro pharmacology data”

Assays:
[1] = biological target: T1, Alpha-2C adrenergic receptor (Homo sapiens, UniProt P18825); test: DRUGMATRIX: Adrenergic Alpha-2C radioligand binding (ligand: [3H] MK-912); assay type: cell membranes, Sf9, Membrane
T1 sequence (P18825 whole entry): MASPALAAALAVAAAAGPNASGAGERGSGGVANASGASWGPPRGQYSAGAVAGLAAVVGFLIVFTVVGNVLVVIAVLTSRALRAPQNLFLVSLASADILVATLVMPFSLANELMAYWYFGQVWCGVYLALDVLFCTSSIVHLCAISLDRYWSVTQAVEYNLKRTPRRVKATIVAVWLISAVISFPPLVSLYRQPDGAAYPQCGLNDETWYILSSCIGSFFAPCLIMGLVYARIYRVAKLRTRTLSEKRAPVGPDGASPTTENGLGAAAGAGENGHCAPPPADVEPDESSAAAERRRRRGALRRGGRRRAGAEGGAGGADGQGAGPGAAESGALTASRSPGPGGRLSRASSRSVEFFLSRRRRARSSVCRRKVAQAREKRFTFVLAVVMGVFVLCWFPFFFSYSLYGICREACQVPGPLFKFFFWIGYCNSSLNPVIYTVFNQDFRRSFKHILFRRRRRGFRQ

[2] = biological target: T2, Muscarinic acetylcholine receptor M2 (Homo sapiens, UniProt P08172); assay type: cell membranes, CHO-K1, Membrane; note: in other assays of this panel Not Active means under 50% inhibition at 10 µM
T2 sequence (P08172 whole entry): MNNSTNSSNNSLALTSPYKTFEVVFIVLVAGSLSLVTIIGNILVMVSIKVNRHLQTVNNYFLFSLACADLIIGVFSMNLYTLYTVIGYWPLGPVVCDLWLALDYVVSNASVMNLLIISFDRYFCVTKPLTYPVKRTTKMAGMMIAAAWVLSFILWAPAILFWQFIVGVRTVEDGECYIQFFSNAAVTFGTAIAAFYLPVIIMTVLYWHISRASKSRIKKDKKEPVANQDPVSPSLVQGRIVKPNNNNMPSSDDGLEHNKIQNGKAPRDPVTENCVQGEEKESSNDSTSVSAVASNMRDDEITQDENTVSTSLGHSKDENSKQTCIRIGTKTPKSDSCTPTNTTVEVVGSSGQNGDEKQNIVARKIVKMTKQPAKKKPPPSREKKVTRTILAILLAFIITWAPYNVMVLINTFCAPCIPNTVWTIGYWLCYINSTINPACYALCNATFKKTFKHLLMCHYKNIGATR

[3] = biological target: T3, Type-2 angiotensin II receptor (Homo sapiens, UniProt P50052); test: biochemical; assay type: cell-based, CHO-K1; conditions: cho-k1; note: in other assays of this panel Not Active means under 50% inhibition at 10 µM
T3 sequence (P50052 whole entry): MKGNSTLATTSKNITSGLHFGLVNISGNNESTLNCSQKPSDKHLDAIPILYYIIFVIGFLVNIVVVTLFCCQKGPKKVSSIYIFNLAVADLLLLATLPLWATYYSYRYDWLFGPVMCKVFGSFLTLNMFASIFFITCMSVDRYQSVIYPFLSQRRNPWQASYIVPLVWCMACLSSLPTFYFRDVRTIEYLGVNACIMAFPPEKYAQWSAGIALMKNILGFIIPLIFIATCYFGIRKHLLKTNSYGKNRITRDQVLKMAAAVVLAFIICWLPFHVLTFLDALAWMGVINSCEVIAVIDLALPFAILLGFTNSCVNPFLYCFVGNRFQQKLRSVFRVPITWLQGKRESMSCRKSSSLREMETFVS

[4] = DRUGMATRIX: Interleukin IL-1 radioligand binding (ligand: [125I] interleukin 1beta); assay type: cell membranes, Membrane; conditions: nih3t3; Not Active = under 50% inhibition at 10 µM
[5] = biological target: Acetylcholinesterase (Homo sapiens, UniProt P22303); test: DRUGMATRIX: Acetylcholinesterase enzyme inhibition (substrate: acetylthiocholine); assay type: cell-based, HEK293; conditions: hek293; Not Active = under 50% inhibition at 10 µM
Acetylcholinesterase, sequence (P22303 whole entry): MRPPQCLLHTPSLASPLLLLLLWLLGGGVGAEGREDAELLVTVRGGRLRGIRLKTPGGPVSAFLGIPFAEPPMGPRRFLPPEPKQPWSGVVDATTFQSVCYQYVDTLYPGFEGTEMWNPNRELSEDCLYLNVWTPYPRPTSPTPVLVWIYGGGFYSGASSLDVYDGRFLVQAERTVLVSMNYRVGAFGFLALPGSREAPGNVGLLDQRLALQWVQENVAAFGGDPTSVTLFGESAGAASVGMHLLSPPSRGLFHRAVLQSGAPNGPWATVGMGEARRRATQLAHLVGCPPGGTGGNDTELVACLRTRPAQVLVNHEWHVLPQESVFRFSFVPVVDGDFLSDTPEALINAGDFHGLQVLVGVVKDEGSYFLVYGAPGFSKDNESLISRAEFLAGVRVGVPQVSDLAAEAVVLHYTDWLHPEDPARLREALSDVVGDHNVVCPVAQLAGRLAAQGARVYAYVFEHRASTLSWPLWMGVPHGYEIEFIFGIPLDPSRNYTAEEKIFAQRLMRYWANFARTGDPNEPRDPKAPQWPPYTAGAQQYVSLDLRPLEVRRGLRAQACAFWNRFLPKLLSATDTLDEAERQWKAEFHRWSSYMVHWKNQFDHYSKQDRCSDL

[6] = biological target: Carbonic anhydrase 2 (Homo sapiens, UniProt P00918); test: DRUGMATRIX: Carbonic Anhydrase II enzyme inhibition (substrate: 4-Nitrophenyl acetate (4-NPA)); assay type: tissue-based, Erythrocyte; conditions: Not Active = under 50% inhibition at 10 µM
[7] = biological target: T4, Interstitial collagenase (Homo sapiens, UniProt P03956); test: biochemical; assay type: tissue-based, Rheumatoid synovial fibroblasts;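 note: MMP-1 enzyme inhibition assay using a peptide substrate; in other assays of this panel Not Active means under 50% inhibition at 10 µM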
T4 sequence (P03956 whole entry): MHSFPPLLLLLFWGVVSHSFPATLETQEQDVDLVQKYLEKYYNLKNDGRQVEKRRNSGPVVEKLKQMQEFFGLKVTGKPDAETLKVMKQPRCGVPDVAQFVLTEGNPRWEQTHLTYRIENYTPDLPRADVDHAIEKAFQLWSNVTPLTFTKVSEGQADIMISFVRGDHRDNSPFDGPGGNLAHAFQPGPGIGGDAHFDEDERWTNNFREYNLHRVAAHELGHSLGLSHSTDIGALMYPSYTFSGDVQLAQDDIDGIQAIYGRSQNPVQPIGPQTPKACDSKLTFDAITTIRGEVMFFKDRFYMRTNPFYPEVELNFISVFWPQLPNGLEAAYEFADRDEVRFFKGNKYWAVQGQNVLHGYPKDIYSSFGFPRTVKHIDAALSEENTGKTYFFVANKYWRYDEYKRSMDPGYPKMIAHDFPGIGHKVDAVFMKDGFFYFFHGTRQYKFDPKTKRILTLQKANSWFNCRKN

ClC(Cl)(Cl)Cl [CARBON TETRACHLORIDE]
Not Active: IC50 ([1]; sf9) | IC50 ([2]; cho-k1) | IC50 [3] | IC50 [4] | Ki [4] | IC50 [5] | IC50 ([6]; erythrocyte) | IC50 [7]

CO/N=C(\C(=O)N[C@@H]1C(=O)N2C(C(=O)O)=C(COC(C)=O)CS[C@H]12)c1csc(N)n1 [CEFOTAXIME]
Not Active: IC50 ([1]; sf9) | IC50 ([2]; cho-k1) | IC50 [3] | IC50 [4] | Ki [4] | IC50 [5] | IC50 ([6]; erythrocyte) | IC50 [7]

CNC1=Nc2ccc(Cl)cc2C(c2ccccc2)=[N+]([O-])C1 [CHLORDIAZEPOXIDE]
Not Active: IC50 ([1]; sf9) | IC50 ([2]; cho-k1) | IC50 [3] | IC50 [4] | Ki [4] | IC50 [5] | IC50 ([6]; erythrocyte) | IC50 [7]

Cc1cc(O)cc(C)c1Cl [CHLOROXYLENOL]
Not Active: IC50 ([1]; sf9) | IC50 ([2]; cho-k1) | IC50 [3] | IC50 [4] | Ki [4] | IC50 [5] | IC50 ([6]; erythrocyte) | IC50 [7]

CCCNC(=O)NS(=O)(=O)c1ccc(Cl)cc1 [CHLORPROPAMIDE]
Not Active: IC50 ([1]; sf9) | IC50 ([2]; cho-k1) | IC50 [3] | IC50 [4] | Ki [4] | IC50 [5] | IC50 ([6]; erythrocyte) | IC50 [7]

NS(=O)(=O)c1cc(C2(O)NC(=O)c3ccccc32)ccc1Cl (stereo unspecified) [CHLORTHALIDONE]
Not Active: IC50 ([1]; sf9) | IC50 ([2]; cho-k1) | IC50 [3] | IC50 [4] | Ki [4] | IC50 [5] | IC50 [7]
677 nM: IC50 ([6]; read-out: IC50)

O=C(O)CC(O)(CC(=O)O)C(=O)O [CITRIC ACID]
Not Active: IC50 ([1]; sf9) | IC50 ([2]; cho-k1) | IC50 [3] | IC50 [4] | Ki [4] | IC50 [5] | IC50 ([6]; erythrocyte) | IC50 [7]

CC(C)NCC(O)c1ccccc1Cl (stereo unspecified) [CLORPRENALINE]
Not Active: IC50 ([1]; sf9) | IC50 ([2]; cho-k1) | IC50 [3] | IC50 [4] | Ki [4] | IC50 [5] | IC50 ([6]; erythrocyte) | IC50 [7]

CN1CCN(C(c2ccccc2)c2ccccc2)CC1 [CYCLIZINE]
412 nM: Ki ([2]; read-out: Ki)
1160 nM: IC50 ([2]; read-out: IC50)
Not Active: IC50 ([1]; sf9) | IC50 [3] | IC50 [4] | Ki [4] | IC50 [5] | IC50 ([6]; erythrocyte) | IC50 [7]

CN1C[C@@H]2C[C@H]1CN2c1cc2c(cc1F)c(=O)c(C(=O)O)cn2C1CC1 [DANOFLOXACIN]
Not Active: IC50 ([1]; sf9) | IC50 ([2]; cho-k1) | IC50 [3] | IC50 [4] | Ki [4] | IC50 [5] | IC50 ([6]; erythrocyte) | IC50 [7]

COc1cccc2c1C(=O)c1c(O)c3c(c(O)c1C2=O)C[C@@](O)(C(C)=O)C[C@@H]3O[C@H]1C[C@H](N)[C@H](O)[C@H](C)O1 [DAUNORUBICIN]
Not Active: IC50 ([1]; sf9) | IC50 ([2]; cho-k1) | IC50 [3] | IC50 [4] | Ki [4] | IC50 [5] | IC50 ([6]; erythrocyte) | IC50 [7]

O=C(O)c1cc(-c2ccc(F)cc2F)ccc1O [DIFLUNISAL]
Not Active: IC50 ([1]; sf9) | IC50 ([2]; cho-k1) | IC50 [3] | IC50 [4] | Ki [4] | IC50 [5] | IC50 ([6]; erythrocyte) | IC50 [7]

C[S+](C)[O-] [DIMETHYL SULFOXIDE]
Not Active: IC50 ([1]; sf9) | IC50 ([2]; cho-k1) | IC50 [3] | IC50 [4] | Ki [4] | IC50 [5] | IC50 ([6]; erythrocyte) | IC50 [7]

CC1=NN(c2ccccc2)C(=O)C1 [EDARAVONE]
Not Active: IC50 ([1]; sf9) | IC50 ([2]; cho-k1) | IC50 [3] | IC50 [4] | Ki [4] | IC50 [5] | IC50 ([6]; erythrocyte) | IC50 [7]

CC(C)C[C@H]1C(=O)N2CCC[C@H]2[C@]2(O)O[C@](NC(=O)[C@@H]3C=C4c5cccc6[nH]cc(c56)C[C@H]4N(C)C3)(C(C)C)C(=O)N12 [ERGOCRYPTINE]
Not Active: IC50 ([2]; cho-k1) | IC50 [3] | IC50 [4] | Ki [4] | IC50 [5] | IC50 ([6]; erythrocyte) | IC50 [7]
5.48 nM: Ki ([1]; read-out: Ki)
38 nM: IC50 ([1]; read-out: IC50)

C[C@]12CC[C@@H]3c4ccc(O)cc4CC[C@H]3[C@@H]1C[C@@H](O)[C@@H]2O [ESTRIOL]
Not Active: IC50 ([1]; sf9) | IC50 ([2]; cho-k1) | IC50 [3] | IC50 [4] | Ki [4] | IC50 [5] | IC50 ([6]; erythrocyte) | IC50 [7]

C#C[C@]1(O)CC[C@H]2[C@@H]3CCC4=CC(=O)CC[C@]4(C)[C@H]3CC[C@@]21C [ETHISTERONE]
Not Active: IC50 ([1]; sf9) | IC50 ([2]; cho-k1) | IC50 [3] | IC50 [4] | Ki [4] | IC50 [5] | IC50 ([6]; erythrocyte) | IC50 [7]

CC(O)(P(=O)(O)O)P(=O)(O)O [ETIDRONIC ACID]
Not Active: IC50 ([1]; sf9) | IC50 ([2]; cho-k1) | IC50 [3] | IC50 [4] | Ki [4] | IC50 [5] | IC50 ([6]; erythrocyte) | IC50 [7]

CC(C)(C(=O)O)c1ccc(C(O)CCCN2CCC(C(O)(c3ccccc3)c3ccccc3)CC2)cc1 (stereo unspecified) [FEXOFENADINE]
Not Active: IC50 ([1]; sf9) | IC50 ([2]; cho-k1) | IC50 [3] | IC50 [4] | Ki [4] | IC50 [5] | IC50 ([6]; erythrocyte) | IC50 [7]

CN1CCN(c2c(F)cc3c(=O)c(C(=O)O)cn(CCF)c3c2F)CC1 [FLEROXACIN]
Not Active: IC50 ([1]; sf9) | IC50 ([2]; cho-k1) | IC50 [3] | IC50 [4] | Ki [4] | IC50 [5] | IC50 ([6]; erythrocyte) | IC50 [7]

O=c1[nH]c(=O)n([C@H]2C[C@H](O)[C@@H](CO)O2)cc1F [FLOXURIDINE]
Not Active: IC50 ([1]; sf9) | IC50 ([2]; cho-k1) | IC50 [3] | IC50 [4] | Ki [4] | IC50 [5] | IC50 ([6]; erythrocyte) | IC50 [7]

COC(=O)Nc1nc2cc(C(=O)c3ccc(F)cc3)ccc2[nH]1 [FLUBENDAZOLE]
Not Active: IC50 ([1]; sf9) | IC50 ([2]; cho-k1) | IC50 [3] | IC50 [4] | Ki [4] | IC50 [5] | IC50 ([6]; erythrocyte) | IC50 [7]

CC(=O)OCC(=O)[C@@]1(O)CC[C@H]2[C@@H]3CCC4=CC(=O)CC[C@]4(C)[C@@]3(F)[C@@H](O)C[C@@]21C [FLUDROCORTISONE ACETATE]
Not Active: IC50 ([1]; sf9) | IC50 ([2]; cho-k1) | IC50 [3] | IC50 [4] | Ki [4] | IC50 [5] | IC50 ([6]; erythrocyte) | IC50 [7]
